From patent publication US9809582B2, “Aminoester derivatives” (CHIESI FARMACEUTICI S.p.A., priority 2015, dated 2017)
Like-named read-outs stand apart in the source and are kept apart here.

Columns and labels:
Human recombinant PDE4B2 = Human recombinant PDE4B2 (Homo sapiens (Human), UniProt Q07343); experiment: PDE4B2 HTRF assay; assay type: biochemical
Procedure: PDE4B2 activity is detected using the LANCE Ultra cAMP homogeneous time resolved fluorescence resonance energy transfer (TR-FRET) assay from Perkin Elmer. The assay is based on the competition between the europium (Eu) chelate-labeled cAMP tracer and sample cAMP for binding sites on cAMP-specific monoclonal antibodies (mAb) labelled with the ULight™ dye. The assay is carried out in 384-well low volume plates in a volume of 10 μl. Human recombinant PDE4B2 (80 pM) is incubated for 2 h with 3 nM cAMP in buffer containing 1×HBSS, 5 mM HEPES, 3 mM MgCl2, 0.1% BSA, pH 7.4 with or without test compounds. The enzymatic reactions are efficiently stopped by the addition of 500 μM IBMX present in the combined Stop/Detection buffer containing europium (Eu) chelate-labeled cAMP tracer and cAMP-specific monoclonal antibodies (mAb) labelled with the ULight™ dye. […] IC50 values are determined from competition curves using a non-linear curve fitting program.

Human M3 receptor = Human M3 receptor (Homo sapiens (Human), UniProt P20309); experiment: M3 receptor radioligand binding assay
Procedure: M3 Receptor Radioligand Binding Assay:
The assay is carried out in 96-well polypropylene plates in a volume of 250 μl. […] The final assay concentration of DMSO is 0.5% (v/v). The plates are sealed and incubated for 2 h at room temperature on an orbital shaker (slow speed). Membranes are harvested onto 96-well unifilter GF/C filter plates pre-treated with 0.5% polyethyleneimine (v/v), using a filter manifold, washed four times with […] of assay buffer. The plates are dried before addition of 50 μl of microscint-0, sealed then read in a Trilux Microbeta scintillation counter. IC50 values are determined from competition curves using a non-linear curve fitting program. Ki values are calculated from IC50 values by the Cheng and Prusoff equation.

[1] = cited from earlier work
[2] = patients with severe disease, frequent exacerbations and mucus hypersecretion
[3] = PDE4B2 HTRF assay, read-out: PDE4B2 IC50 Activity
[4] = M3 Receptor radioligand binding assay, read-out: M3 IC50 Activity

Human recombinant PDE4B2, sequence (Q07343 other isoform, or with tags, fused parts or gaps): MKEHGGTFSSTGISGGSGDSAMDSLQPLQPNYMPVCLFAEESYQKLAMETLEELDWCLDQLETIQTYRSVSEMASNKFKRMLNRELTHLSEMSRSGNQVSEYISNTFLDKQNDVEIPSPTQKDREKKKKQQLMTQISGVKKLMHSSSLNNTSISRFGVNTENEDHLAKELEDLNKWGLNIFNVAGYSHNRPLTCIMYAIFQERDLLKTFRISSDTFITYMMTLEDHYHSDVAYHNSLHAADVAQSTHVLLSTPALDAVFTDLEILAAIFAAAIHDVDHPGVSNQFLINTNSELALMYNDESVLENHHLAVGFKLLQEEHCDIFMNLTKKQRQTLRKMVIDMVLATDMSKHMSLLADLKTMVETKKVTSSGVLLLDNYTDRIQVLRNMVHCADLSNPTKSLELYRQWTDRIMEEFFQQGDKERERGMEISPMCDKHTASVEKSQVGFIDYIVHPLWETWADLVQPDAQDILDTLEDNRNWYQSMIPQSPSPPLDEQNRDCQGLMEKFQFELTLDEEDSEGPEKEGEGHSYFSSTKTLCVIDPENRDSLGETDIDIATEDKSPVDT
Human M3 receptor, sequence (P20309 whole entry): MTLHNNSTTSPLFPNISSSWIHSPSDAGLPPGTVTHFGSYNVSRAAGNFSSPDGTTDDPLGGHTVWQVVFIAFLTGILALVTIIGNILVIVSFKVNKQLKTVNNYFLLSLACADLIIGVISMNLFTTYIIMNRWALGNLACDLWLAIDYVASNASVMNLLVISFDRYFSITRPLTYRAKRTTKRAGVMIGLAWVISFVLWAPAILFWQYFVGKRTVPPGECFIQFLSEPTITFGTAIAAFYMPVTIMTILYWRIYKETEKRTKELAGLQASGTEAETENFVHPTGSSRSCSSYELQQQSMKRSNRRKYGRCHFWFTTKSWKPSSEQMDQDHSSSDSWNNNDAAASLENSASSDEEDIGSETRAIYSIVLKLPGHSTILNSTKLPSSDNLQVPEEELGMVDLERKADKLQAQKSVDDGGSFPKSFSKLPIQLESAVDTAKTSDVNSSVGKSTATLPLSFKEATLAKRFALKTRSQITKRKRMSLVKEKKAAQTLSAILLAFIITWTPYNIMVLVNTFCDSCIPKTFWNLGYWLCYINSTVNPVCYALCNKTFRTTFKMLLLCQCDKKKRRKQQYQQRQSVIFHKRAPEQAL

Row | SMILES | IC50 (Human recombinant PDE4B2) [nM] | IC50 (Human M3 receptor; M3 IC50 Activity) [nM] | IC50 (Human recombinant PDE4B2; [3]) [nM] | IC50 (Human M3 receptor; [4]) [nM] | also measured
1 | COc1ccc([C@H](Cc2c(Cl)c[n+]([O-])cc2Cl)OC(=O)c2ccc(CNCC(C(=O)O[C@H]3CN4CCC3CC4)c3ccccc3)s2)cc1OC (single isomer, unassigned) [Example 20] | 1 to 10 | < 1 |  |  | 
2 | O=C(Nc1c(Cl)cncc1Cl)c1ccc(OC(F)F)c(OCC2CC2)c1 [roflumilast] |  |  |  |  | reduction of the numbers of neutrophils in sputum ([1]; COPD patients, oral, given over four weeks): 36%; improvement of FEV 1 [1, 2]: approximately 50 mL; reduction of exacerbation [1, 2]: about 15%
3 | COc1ccc([C@H](Cc2c(Cl)c[n+]([O-])cc2Cl)OC(=O)c2ccc(CNCC(C)(C(=O)OCCN(C)C)c3ccccc3)s2)cc1OC (stereo partly drawn) [Example 29, [(1S)-2-(3,5-dichloro-1-oxido-pyridin-1-ium-4-yl)-1-(3,4-dimethoxyphenyl)ethyl] 5-[[[3-(2-dimethylaminoethyloxy)-2-methyl-3-oxo-2-phenyl-propyl]amino]methyl]thiophene-2-carboxylate] |  |  | 1 to 10 | 10 to 100 | 
4 | COc1ccc([C@H](Cc2c(Cl)c[n+]([O-])cc2Cl)OC(=O)c2ccc(CNCC(C(=O)O[C@@H]3CCN(C)C3)c3ccccc3)s2)cc1OC (stereo partly drawn) [Example 4, [(1S)-2-(3,5-dichloro-1-oxido-pyridin-1-ium-4-yl)-1-(3,4-dimethoxyphenyl)ethyl]-5-[[[3-[(3R)-1-methylpyrrolidin-3-yl]oxy-3-oxo-2-phenyl-propyl]amino]methyl]thiophene-2-carboxylate] |  |  | 1 to 10 | 10 to 100 | 
5 | COc1ccc([C@H](Cc2c(Cl)c[n+]([O-])cc2Cl)OC(=O)c2ccc(CN3CCC(C(=O)O[C@H]4CN5CCC4CC5)(c4ccccc4)CC3)cc2)cc1OC [Example 11, [(3R)-quinuclidin-3-yl]-1-[[4-[(1S)-2-(3,5-dichloro-1-oxido-pyridin-1-ium-4-yl)-1-(3,4-dimethoxyphenyl)ethoxy]-carbonylphenyl]methyl]-4-phenyl-piperidine-4-carboxylate] | 1 to 10 | 10 to 100 |  |  | 
6 | COc1ccc([C@H](Cc2c(Cl)c[n+]([O-])cc2Cl)OC(=O)c2ccc(CNC3CC(C(=O)OC4CCN(C)CC4)(c4ccccc4)C3)s2)cc1OC (single isomer, unassigned) [Example 34] |  |  | 1 to 10 | 10 to 100 | 
7 | COc1ccc([C@H](Cc2c(Cl)c[n+]([O-])cc2Cl)OC(=O)c2ccc(CNC3CC(C(=O)O[C@H]4CN5CCC4CC5)(c4ccccc4)C3)s2)cc1OC (stereo partly drawn) [Example 33, [(1S)-2-(3,5-dichloro-1-oxido-pyridin-1-ium-4-yl)-1-(3,4-dimethoxyphenyl)ethyl] 5-[[[3-phenyl-3-[(3R)-quinuclidin-3-yl]oxycarbonyl-cyclobutyl]amino]methyl]thiophene-2-carboxylate] | 1 to 10 | 1 to 10 |  |  | 
8 | COc1ccc([C@H](Cc2c(Cl)c[n+]([O-])cc2Cl)OC(=O)c2ccc(CN(C)CC(C)(C(=O)O[C@H]3CN4CCC3CC4)c3ccccc3)s2)cc1OC (stereo partly drawn) [Example 10, [(1S)-2-(3,5-dichloro-1-oxido-pyridin-1-ium-4-yl)-1-(3,4-dimethoxyphenyl)ethyl]-5-[[methyl-[2-methyl-3-oxo-2-phenyl-3-[(3R)-quinuclidin-3-yl]oxy-propyl]amino]methyl]thiophene-2-carboxylate] | 1 to 10 | 1 to 10 |  |  | 
9 | COc1ccc([C@H](Cc2c(Cl)c[n+]([O-])cc2Cl)OC(=O)c2ccc(CNCC(C(=O)OCCN(C)C)c3ccccc3)s2)cc1OC (stereo partly drawn) [Example 22, [(1S)-2-(3,5-dichloro-1-oxido-pyridin-1-ium-4-yl)-1-(3,4-dimethoxyphenyl)ethyl] 5-[[[3-(2-dimethylaminoethyloxy)-3-oxo-2-phenyl-propyl]amino]methyl]thiophene-2-carboxylate] |  |  | 1 to 10 | 1 to 10 | 
10 | COc1ccc([C@H](Cc2c(Cl)c[n+]([O-])cc2Cl)OC(=O)c2ccc(CCN3CCC(C(=O)O[C@H]4CN5CCC4CC5)(c4ccccc4)CC3)cc2)cc1OC [Example 12, [(3R)-quinuclidin-3-yl]-1-[2-[4-[(1S)-2-(3,5-dichloro-1-oxido-pyridin-1-ium-4-yl)-1-(3,4-dimethoxyphenyl)ethoxy]carbonylphenyl]ethyl]-4-phenyl-piperidine-4-carboxylate] | 1 to 10 | 1 to 10 |  |  | 
